Drawing on PubChem BioAssay (NCI), this text covers TGI and GI50 for nine molecules.

Some test systems named below: OVCAR-3 ovarian; NCI-H23 lung; CCRF-CEM leukemia; SK-OV-3 ovarian; MOLT-4 leukemia; SR leukemia; HCT-116 colon; A498 renal; HOP-92 NSCLC; HOP-62 NSCLC.
Common to all, as to test: DTP human tumour cell line panel, 48 h

Values joined by “and” are separate entries in the source; they are usually repeats but may differ in a detail not shown here. Equal entries are not always repeated.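 These data come from cells grown in 96-well plates and exposed to compound for 48 hours at five concentrations. At the GI50, growth is halved. TGI denotes the concentration required for complete inhibition of growth.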

The TGI is the concentration at which net growth stops. High values mean less potent growth arrest, low ones more potent growth arrest. With `CCCCNCC(=O)O[C@]1(CC)C(=O)OCc2c1cc1n(c2=O)Cc2cc3ccccc3nc2-1`, the TGI in the experiment on OVCAR-3 ovarian is 12.8 µM; in the experiment on NCI-H23 lung, 0.877 µM; in the experiment with CCRF-CEM leukemia, 0.723 µM; in the experiment with SK-OV-3 ovarian, over 40.5 µM; in the experiment on MOLT-4 leukemia, 0.232 µM; with SR leukemia it was 0.0355 µM. Besides, the TGI worked out at 4.8 µM with HCT-116 colon, 4.64 µM in the experiment on A498 renal and 12.3 µM with HOP-92 NSCLC.

The term GI50 denotes the concentration that inhibits growth by half. Consider `C=CC(=O)N1CCN(c2ccc3cccc(NC(=O)c4cnc(C)cn4)c3n2)CC1`, for which the GI50 in the experiment with OVCAR-3 ovarian is 2.91 µM; in the experiment with NCI-H23 lung it was 4.49 µM; in the experiment with CCRF-CEM leukemia, 2.08 µM; in the experiment with MOLT-4 leukemia it was 2.18 µM; in the experiment on SR leukemia it was 0.838 µM; in the experiment with HCT-116 colon it was 2.36 µM. In addition, the GI50 with A498 renal was 0.388 µM; in the experiment with HOP-62 NSCLC it was 4.24 µM; in the experiment on HOP-92 NSCLC it was 2.68 µM. The TGI in the experiment on OVCAR-3 ovarian was over 100 µM; in the experiment on NCI-H23 lung it was 19.5 µM; in the experiment with CCRF-CEM leukemia, 8.29 µM; in the experiment on MOLT-4 leukemia, 6.66 µM; in the experiment on SR leukemia it was 12.7 µM; with HCT-116 colon, 20.1 µM. The values for the TGI in the experiment with A498 renal, in the experiment on HOP-62 NSCLC and with HOP-92 NSCLC were 4.19 µM, over 100 µM and over 100 µM, respectively.

In the case of `CC1=C(CCC(C)N(C)Cc2ccc(OCCCN3CCCC3)cc2)C(C)(C)CCC1` (stereo not drawn), the GI50 with OVCAR-3 ovarian is 5.72 µM; in the experiment on NCI-H23 lung, 10.4 µM; with CCRF-CEM leukemia it was 2.66 µM; with SK-OV-3 ovarian it was 11.4 µM; with SR leukemia it was 0.744 µM; with HCT-116 colon, 2.82 µM. Moreover, the GI50 is 10.4 µM in the experiment with A498 renal, 3.54 µM with HOP-62 NSCLC and 2.83 µM with HOP-92 NSCLC. Also, the TGI was found to be 19.3 µM in the experiment with OVCAR-3 ovarian; 24.9 µM in the experiment on NCI-H23 lung; 11.6 µM in the experiment on CCRF-CEM leukemia; 23.8 µM with SK-OV-3 ovarian; 3.89 µM with SR leukemia; 12.1 µM in the experiment on HCT-116 colon. In addition, the TGI with A498 renal turned out to be 22.7 µM; in the experiment on HOP-62 NSCLC, 17.5 µM; with HOP-92 NSCLC, 13.1 µM.

Turning to `CCOC(=O)c1oc2ccc(OC)c3c2c1CCC3`, the concentration for total growth inhibition (TGI) with OVCAR-3 ovarian, in the experiment on NCI-H23 lung, with CCRF-CEM leukemia, in the experiment on SK-OV-3 ovarian, with MOLT-4 leukemia and in the experiment with SR leukemia was over 100 µM throughout. The TGI in the experiment with A498 renal, with HOP-62 NSCLC and with HOP-92 NSCLC was over 100 µM throughout.

As to `CS(=O)(=O)c1ccc(C(=O)Nc2ccc(Cl)c(-c3ccccn3)c2)c(Cl)c1`, the concentration for total growth inhibition (TGI) in the experiment on NCI-H23 lung is > 100 µM and 17.2 µM; with CCRF-CEM leukemia it was over 100 µM; in the experiment with SK-OV-3 ovarian, over 100 µM; in the experiment with MOLT-4 leukemia it was > 100 µM and 14.7 µM; in the experiment with SR leukemia it was > 100 µM and 20.9 µM; in the experiment with A498 renal, > 100 µM and 46.3 µM. Further, the TGI in the experiment on HOP-62 NSCLC is > 100 µM and 19.3 µM; in the experiment with HOP-92 NSCLC, > 100 µM and 10.7 µM. For the same molecule, the GI50 in the experiment with SK-OV-3 ovarian was over 100 µM.

On to `CCOC(=O)C1Oc2ccc([N+](=O)[O-])c3c2C1(O)CCC3` (stereo not drawn), for which the total growth inhibition concentration (TGI) with OVCAR-3 ovarian, with NCI-H23 lung, in the experiment with CCRF-CEM leukemia, in the experiment with SK-OV-3 ovarian, in the experiment on MOLT-4 leukemia and in the experiment on SR leukemia was over 100 µM each time. The TGI in the experiment on A498 renal, with HOP-62 NSCLC and in the experiment with HOP-92 NSCLC was over 100 µM each time.

As for `COc1cc2nc(N3CCCC3)nc(NCC3CCCCC3)c2cc1OC`, the GI50 was 1.55 µM in the experiment on OVCAR-3 ovarian; 1.57 µM with NCI-H23 lung; 1.09 µM in the experiment with CCRF-CEM leukemia; 1.75 µM with SK-OV-3 ovarian; 0.254 µM with SR leukemia; 0.805 µM in the experiment with HCT-116 colon. For the same molecule, the GI50 was 1.11 µM in the experiment with A498 renal, 1.56 µM with HOP-62 NSCLC and 1.11 µM with HOP-92 NSCLC. In addition, the TGI in the experiment with OVCAR-3 ovarian stood at 2.99 µM; in the experiment with NCI-H23 lung, 3.07 µM; with CCRF-CEM leukemia, 3.5 µM; in the experiment on SK-OV-3 ovarian it was 3.24 µM; in the experiment on SR leukemia, 1.08 µM; with HCT-116 colon, 2.21 µM. In addition, the TGI in the experiment on A498 renal amounted to 2.47 µM; with HOP-62 NSCLC, 3.2 µM; in the experiment on HOP-92 NSCLC, 2.46 µM.

Turning to `CCOc1ccc2nc(NC(=O)c3c/c(=N\NC(=O)C[N+](C)(C)C)c4ccc(O)cc4o3)sc2c1`, the total growth inhibition concentration (TGI) worked out at 0.402 µM with OVCAR-3 ovarian; 7.13 µM with NCI-H23 lung; 5.96 µM in the experiment on CCRF-CEM leukemia; 25.2 µM in the experiment with SK-OV-3 ovarian; 5.74 µM in the experiment with MOLT-4 leukemia; 17.3 µM in the experiment on SR leukemia. The TGI in the experiment on HCT-116 colon is over 29.8 µM; in the experiment on A498 renal it was 28 µM; with HOP-92 NSCLC it was 6.99 µM.

Turning to `COc1ccc(OC)c(NC(=O)CCC/C(CC(=O)c2ccc(O)c(OC)c2)=N\NC(=O)C[N+](C)(C)C)c1`, the TGI in the experiment on OVCAR-3 ovarian, with NCI-H23 lung, with CCRF-CEM leukemia, in the experiment with SK-OV-3 ovarian, in the experiment with MOLT-4 leukemia and in the experiment with SR leukemia was over 100 µM each time. Besides, the TGI in the experiment on A498 renal, in the experiment on HOP-62 NSCLC and with HOP-92 NSCLC was over 100 µM in each case.
